Experimental data reported in patent US20080200475A1 (Pfizer Inc., priority 2005, published 2008).
Several values for one entry are separate records, joined by “and”; a condition that tells them apart may be missing. Identical values can stand only once.

Target: T1, Human P2Y12 (Homo sapiens, UniProt Q9H244)
T1 construct: expressed in transfected cells; host or cells: HEK cells (membrane preparation)
Experiment: [^33P]-2MeS-ADP Binding to Recombinant Human P2Y12 Membranes (Assay 3)
Conditions: for IC50 / Ki: membranes of HEK cells transfected with P2Y12, competition with ^33P 2MeS-ADP, multiple lines = multiple runs; for inhibition at 1 µM: highest concentration tested 1 μM
Experimental: 3. Human P2Y12 Recombinant Cell Membrane Binding Assay with ^33P 2MeS-ADP.
The ability of a test compound to bind to the P2Y12 receptor was evaluated in a recombinant cell membrane binding assay. In this competitive binding assay, the test compound competed against a radiolabelled agonist for binding to the P2Y12 receptor, expressed on the cell membrane. Inhibition of binding of the labeled material was measured and correlated to the amount and potency of the test compound. Data from this assay are presented in Table F. This binding assay is a modification of the procedure in Takasaki, J. et. al, Mol. Pharmacol., 2001, Vol. 60, pg. 432.
HEK cells were transfected with the pDONR201P2Y12 vector and cultured in MEM with GlutaMAX I, Earle's salts, 25 mM HEPES (Gibco #42360-032) containing 10% dialyzed FBS (Gibco #26400-044), 100 μM nonessential amino acids (Gibco #11140-050), 1 mM sodium pyruvate (Gibco #11360-070), 0.05% geneticin (Gibco #10131-027), 3 μg/mL blasticidin (Fluka brand from Sigma #15205), and 0.5 μg/mL puromycin (Sigma #P-8833).
Confluent cells were washed once with cold DPBS (Gibco #14190-136). Fresh DPBS was added and the cells were scraped and centrifuged at 500×g for 5 minutes at 4° C. The cell pellets were resuspended in TEE buffer (25 mM Tris, 5 mM EDTA, 5 mM EGTA) containing 1 protease inhibitor cocktail tablet (Roche #1 873 580) per 50 mL (called TEE+Complete) and can be flash frozen at this point.
In one embodiment, frozen cell pellets were used to prepare the membranes. In that embodiment, the frozen cell pellets were thawed on ice. In another embodiment, cell pellets may be used without flash freezing before moving on to the next step.
Cell pellets were resuspended in TEE buffer+Complete and homogenized in a glass dounce for 12 strokes. The cell suspension was centrifuged at 500×g for 5 minutes at 4° C. The supernatant was saved and centrifuged at 20,000×g for 20 minutes at 4° C. This supernatant was discarded and the cell pellet resuspended in TEE buffer+Complete and homogenized in a glass dounce for 12 strokes. This suspension was centrifuged at 20,000×g for 20 minutes at 4° C. and the supernatant discarded. The pellet was resuspended in assay buffer (50 mM Tris, 100 mM NaCl, 1 mM EDTA) containing one protease inhibitor cocktail tablet per 50 mL, and can be flash frozen as 1 mL aliquots at this point.
[…] A 1 mM DMSO intermediate stock was made in a dilution plate and from this the seven dilutions were made to 5× the final concentration in assay buffer containing 0.02% BSA.
To a polypropylene assay plate (Costar #3365) the following were added: a) 30 μL of assay buffer containing one protease inhibitor cocktail tablet per 50 mL; b) 30 μL of 1 nM ^33P 2MeS-ADP made in assay buffer containing 0.02% BSA and 12.5 mg/mL ascorbic acid; 30 μL of cold 1.5 μM 2MeS-ADP for the positive control wells, or assay buffer containing 0.02% BSA and 12.5 mg/mL ascorbic acid for the negative control wells, or 5× drug dilution; and 60 μL of 1 ug/well membranes.
The plates were incubated at room temperature for 1 hour. The reaction was stopped using a cell harvester to transfer the reaction mixture onto GF/B UniFilter plates (Perkin Elmer #6005177), and washed three times with wash buffer (50 mM Tris), filtering between each wash. The filter plates were dried for approximately 20 minutes in an oven at 50° C. Back seals were adhered to the filter plates and 25 uL of Microscint 20 scintillation fluid (Perkin Elmer #6013621) were added. The filter plates were sealed, shaken for 30 minutes, and counted on a Top Count. Data were analyzed using a four-parameter curve fit with a fixed minimum and maximum experimentally defined as the average positive and negative controls on each plate, and with a hill slope equal to one. […]

[1] = highest concentration tested 10 μM

T1 sequence (Q9H244 whole entry): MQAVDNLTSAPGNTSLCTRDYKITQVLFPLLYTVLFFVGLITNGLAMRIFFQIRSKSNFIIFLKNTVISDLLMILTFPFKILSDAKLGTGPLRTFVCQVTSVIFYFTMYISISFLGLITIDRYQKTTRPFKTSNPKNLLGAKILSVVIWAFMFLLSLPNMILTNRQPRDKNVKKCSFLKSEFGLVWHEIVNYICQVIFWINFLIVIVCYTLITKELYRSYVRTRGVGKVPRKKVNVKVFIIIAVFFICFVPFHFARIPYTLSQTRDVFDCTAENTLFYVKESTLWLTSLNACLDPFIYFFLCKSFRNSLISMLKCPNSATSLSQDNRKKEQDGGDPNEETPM

Compound	inhibition at 10 µM [1] [%]	IC50	Ki	% Inhibition, [^33P]-2MeS-ADP Binding to Recombinant Human P2Y12 Membranes (Assay 3) [1] [%]	inhibition at 1 µM [%]
CCc1cc2c(N3CCN(C(=O)c4ccc(-c5ccccc5)cc4)CC3)nc(NC(=O)COC)nc2s1 [Example 23, N-{4-[4-(Biphenyl-4-carbonyl)piperazin-1-yl]-6-ethylthieno[2,3-d]pyrimidin-2-yl}-2-methoxyacetamide]	93.2	0.0624 µM	0.036 µM		
CCc1cc2c(N3CCN(C(=O)c4ccc(-c5ccccc5)cc4)CC3)nc(NC(=O)C(C)C)nc2s1 [Example 24]	90	0.163 µM	0.089 µM		
CCc1cc2c(N3CCN(C(=O)c4ccc(-c5ccccc5)cc4)CC3)nc(NC(=O)COCc3ccccc3)nc2s1 [Example 27, 2-Benzyloxy-N-{4-[4-(biphenyl-4-carbonyl)piperazin-1-yl]-6-ethylthieno[2,3-d]pyrimidin-2-yl}acetamide]	84	0.204 µM	0.119 µM		
CCc1cc2c(N3CCN(C(=O)c4ccc(-c5ccccc5)cc4)CC3)nc(NC(=O)CCNC(=O)OCc3ccccc3)nc2s1 [Example 28, Benzyl(2-{4-[4-(biphenyl-4-carbonyl)piperazin-1-yl]-6-ethylthieno[2,3-d]pyrimidin-2-ylcarbamoyl}ethyl)carbamate]	92.7	0.0381 µM	0.021 µM		
CCc1cc2c(N3CCN(C(=O)c4ccc(-c5ccccc5)cc4)CC3)nc(NC(=O)c3cccnc3)nc2s1 [Example 29, N-{4-[4-(Biphenyl-4-carbonyl)piperazin-1-yl]-6-ethylthieno[2,3-d]pyrimidin-2-yl}nicotinamide]	89	0.078 µM	0.043 µM		
CCc1cc2c(N3CCN(C(=O)c4ccc(-c5ccccc5)cc4)CC3)nc(NC(=O)C3OC(OC)[C@@H]4OC(C)(C)O[C@H]34)nc2s1 (stereo partly drawn) [Example 31, (7R,8S)-6-Methoxy-2,2-dimethyltetrahydrofuro[3,4-d][1,3]dioxole-4-carboxylic acid{4-[4-(biphenyl-4-carbonyl)piperazin-1-yl]-6-ethylthieno[2,3-d]pyrimidin-2-yl}amide]	76.7	0.345 µM and 0.678 µM	0.189 µM and 0.329 µM	72.4	
CCc1cc2c(N3CCN(C(=O)c4ccc(-c5ccccc5)cc4)CC3)nc(NC(=O)c3ccccn3)nc2s1 [Example 33, {4-[4-(Biphenyl-4-carbonyl)piperazin-1-yl]-6-ethylthieno[2,3-d]pyrimidin-2-yl}picolinamide]	87.9	0.0389 µM	0.021 µM		
CCc1cc2c(N3CCN(C(=O)c4ccc(-c5ccccc5)cc4)CC3)nc(NC(=O)c3ccncc3)nc2s1 [Example 34, {4-[4-(Biphenyl-4-carbonyl)piperazin-1-yl]-6-ethylthieno[2,3-d]pyrimidin-2-yl}isonicotinamide]	74.8	0.582 µM	0.328 µM		
CCc1cc2c(N3CCN(C(=O)c4ccc(-c5ccccc5)cc4)CC3)nc(NC(=O)[C@H](COC(C)(C)C)NC(=O)OCc3ccccc3)nc2s1 [Example 35, Benzyl (1-{4-[4-(biphenyl-4-carbonyl)piperazin-1-yl]-6-ethylthieno[2,3-d]pyrimidin-2-ylcarbamoyl)-2-tert-butoxyethyl)carbamate]	53.9	2.7 µM	1.31 µM		
CCc1cc2c(N3CCN(C(=O)c4ccc(-c5ccccc5)cc4)CC3)nc(NC(=O)[C@@H]3CCCN3)nc2s1 [Example 39, (S)-Pyrrolidine-2-carboxylic Acid{4-[4-(Biphenyl-4-carbonyl)piperazin-1-yl]-6-ethylthieno[2,3-d]pyrimidin-2-yl}amide]	81	0.179 µM	0.087 µM		

Now from value to molecule:

inhibition at 10 µM [1] [%]	IC50	Ki	% Inhibition, [^33P]-2MeS-ADP Binding to Recombinant Human P2Y12 Membranes (Assay 3) [1] [%]	inhibition at 1 µM [%]	Compound
94.5	0.066 µM	0.038 µM			CCOC(=O)CNC(=O)Nc1nc(N2CCN(C(=O)c3ccc(-c4ccccc4)cc3)CC2)c2cc(CC)sc2n1 [Example 15, Ethyl N-[({4-[4-(1,1′-biphenyl-4-ylcarbonyl)piperazin-1-yl]-6-ethylthieno[2,3-d]pyrimidin-2-yl}amino)carbonyl]glycinate]
80.8	0.244 µM	0.14 µM			C=C(C)C(=O)OCCNC(=O)Nc1nc(N2CCN(C(=O)c3ccc(-c4ccccc4)cc3)CC2)c2cc(CC)sc2n1 [Example 16, 2-{[({4-[4-(1,1′-Biphenyl-4-ylcarbonyl)piperazin-1-yl]-6-ethylthieno[2,3-d]pyrimidin-2-yl}amino)carbonyl]amino}ethyl 2-methylacrylate]
89.9	0.157 µM	0.09 µM			CCOC(=O)CCNC(=O)Nc1nc(N2CCN(C(=O)c3ccc(-c4ccccc4)cc3)CC2)c2cc(CC)sc2n1 [Example 17, ethyl N-[({4-[4-(1,1′-biphenyl-4-ylcarbonyl)piperazin-1-yl]-6-ethylthieno[2,3-d]pyrimidin-2-yl}amino)carbonyl]-beta-alaninate]
95.4	0.0043 µM	0.002 µM			CCc1cc2c(N3CCN(C(=O)c4ccc(-c5ccccc5)cc4)CC3)nc(NC(=O)NCC(=O)O)nc2s1 [Example 18, N-[({4-[4-(1,1′-Biphenyl-4-ylcarbonyl)piperazin-1-yl]-6-ethylthieno[2,3-d]pyrimidin-2-yl}amino)carbonyl]glycine]
88	0.006 µM	0.003 µM			CCc1cc2c(N3CCN(C(=O)c4ccc(-c5ccccc5)cc4)CC3)nc(NC(=O)NCCC(=O)O)nc2s1 [Example 19, N-[({4-[4-(1,1′-Biphenyl-4-ylcarbonyl)piperazin-1-yl]-6-ethylthieno[2,3-d]pyrimidin-2-yl}amino)carbonyl]-beta-alanine]
89	0.072 µM	0.047 µM			CCc1cc2c(N3CCN(C(=O)c4ccc(-c5ccccc5)cc4)CC3)nc(NC(=O)NCCCO)nc2s1 [Example 20, N-{4-[4-(1,1′-Biphenyl-4-ylcarbonyl)piperazin-1-yl]-6-ethylthieno[2,3-d]pyrimidin-2-yl}-N′-(3-hydroxypropyl)urea]
91	0.159 µM	0.093 µM			CCc1cc2c(N3CCN(C(=O)c4ccc(-c5ccccc5)cc4)CC3)nc(NC(C)=O)nc2s1 [Example 25, N-{4-[4-(Biphenyl-4-carbonyl)piperazin-1-yl]-6-ethylthieno[2,3-d]pyrimidin-2-yl}acetamide]
94	0.067 µM	0.037 µM			CCc1cc2c(N3CCN(C(=O)c4ccc(-c5ccccc5)cc4)CC3)nc(NC(=O)CCO)nc2s1 [Example 36, N-{4-[4-(Biphenyl-4-carbonyl)piperazin-1-yl]-6-ethylthieno[2,3-d]pyrimidin-2-yl}-3-hydroxypropionamide]
	0.0493 µM	0.024 µM		84.5	CCc1cc2c(N3CCN(C(=O)c4ccc(-c5ccccc5)cc4)CC3)nc(NC(=O)CO)nc2s1 [Example 37, N-{4-[4-(Biphenyl-4-carbonyl)piperazin-1-yl]-6-ethylthieno[2,3-d]pyrimidin-2-yl}-b-hydroxyacetamide]
	0.013 µM	0.008 µM		88	CCc1cc2c(N3CCN(C(=O)c4ccc(-c5ccccc5)cc4)CC3)nc(NC(=O)CCC(=O)O)nc2s1 [Example 38, N-{4-[4-(Biphenyl-4-carbonyl)piperazin-1-yl]-6-ethylthieno[2,3-d]pyrimidin-2-yl}succinamic acid]
